Measured values published in PubChem BioAssay (NCI).
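48-hour exposure; five concentrations; linearly interpolated endpoints. GI50 = concentration required for 50% inhibition of growth. The concentration for full growth arrest is given as TGI.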

Experiments:
Assay in all cases: NCI anticancer screen, dose series, 48 h
CCRF-CEM leukemia = test system: CCRF-CEM leukemia
HCT-116 colon = test system: HCT-116 colon
HCT-15 colon = test system: HCT-15 colon
HOP-92 NSCLC = test system: HOP-92 NSCLC
HT29 colon = test system: HT29 colon
K-562 leukemia = test system: K-562 leukemia
NCI-H460 lung = test system: NCI-H460 lung
OVCAR-4 ovarian = test system: OVCAR-4 ovarian
SK-MEL-2 melanoma = test system: SK-MEL-2 melanoma
SK-MEL-28 melanoma = test system: SK-MEL-28 melanoma

| Compound | GI50 (CCRF-CEM leukemia) [µM] | TGI (CCRF-CEM leukemia) [µM] | GI50 (HCT-116 colon) [µM] | TGI (HCT-116 colon) [µM] | GI50 (HCT-15 colon) [µM] | TGI (HCT-15 colon) [µM] | GI50 (HOP-92 NSCLC) [µM] | TGI (HOP-92 NSCLC) [µM] | GI50 (HT29 colon) [µM] | TGI (HT29 colon) [µM] | GI50 (K-562 leukemia) [µM] | TGI (K-562 leukemia) [µM] | GI50 (NCI-H460 lung) [µM] | TGI (NCI-H460 lung) [µM] | GI50 (OVCAR-4 ovarian) [µM] | TGI (OVCAR-4 ovarian) [µM] | GI50 (SK-MEL-2 melanoma) [µM] | TGI (SK-MEL-2 melanoma) [µM] | GI50 (SK-MEL-28 melanoma) [µM] | TGI (SK-MEL-28 melanoma) [µM] |
| --- | --- | --- | --- | --- | --- | --- | --- | --- | --- | --- | --- | --- | --- | --- | --- | --- | --- | --- | --- | --- |
| CC(=O)c1c(C(F)(F)F)n([O-])c2ccc(C)cc2[n+]1=O | 0.555 | 4.83 | 3.89 | > 41.1 | 2.45 | 39.4 | 1.11 | 4.81 | 4.96 | > 100 | 1.1 | 21.4 | 1.39 | > 39.8 | 4.88 | > 100 | 15.5 | > 66.5 | 23.3 | > 100 |
| N/N=C1\CC(=O)NC(=O)N1 |  | > 100 |  | > 100 |  | > 100 |  | > 100 |  | > 100 |  | > 100 |  | > 100 |  | > 100 |  | > 100 |  | > 100 |
| COc1ccc(OC)c(C2SCC(=O)N2NC(=O)C(O)c2ccccc2)c1 (stereo not given) | > 100 | > 100 | > 100 | > 100 | > 100 | > 100 | > 100 | > 100 | > 100 | > 100 | > 100 | > 100 | > 100 | > 100 | > 100 | > 100 | > 100 | > 100 | > 100 | > 100 |
| CN1CCC(n2cnc(-c3ccc(F)cc3)c2-c2ccnc(N)n2)CC1 | 14.4 | > 25 | 8.19 | > 25 | 10.5 | > 25 | 3.99 | 24 | 6.2 | > 25 | 11.6 | > 25 | 7.01 | > 25 | 7.04 | > 25 | > 25 | > 25 | > 23.8 | > 25 |
| Cn1cncc1CC1COC(=O)C1C(O)c1ccccc1 (stereo not given) |  | > 100 |  | > 100 |  | > 100 |  | > 100 |  | > 100 |  | > 100 |  | > 100 |  | > 100 |  | > 100 |  | > 100 |
| CCOc1nc(N)nc(C)c1N=Nc1ccc(Cl)cc1 |  | > 100 |  | > 100 |  | > 100 |  | 88 |  | > 100 |  | > 100 |  | > 100 |  | > 100 |  | > 100 |  | > 100 |
| COCCOCOc1ccc(OCOCCOC)c2c1C(=O)c1ccccc1C2=O |  | > 100 |  | > 85.4 |  | > 100 |  | > 100 |  | > 100 |  | > 100 |  | > 100 |  | > 100 |  | > 100 |  | > 100 |
| [N-]=[N+]=C1C(=O)C2CC3CC(C2)CC1C3 |  | > 100 |  | > 100 |  | > 100 |  | > 100 |  | > 100 |  | > 100 |  | > 100 |  | > 100 |  | > 100 |  | > 100 |
| Cn1cc(-c2nonc2-c2cn(C)c3ccccc23)c2ccccc21 | 0.703 | > 100 | 0.61 | > 100 | 0.537 | > 100 | 4.16 | > 100 | 0.519 | > 100 | 0.342 | > 100 | 0.579 | > 100 | 2.74 | > 100 | 1.22 | > 100 | 4.68 | > 100 |
| CN(CC(N)=O)C(=O)N(CCCl)N=O |  | > 100 |  | > 100 |  | > 100 |  | > 100 |  | > 100 |  | > 100 |  | > 100 |  | > 100 |  | > 100 |  | > 100 |
| CN1CCN(CC(O)COc2c(Br)c(Br)c(Br)c3c2OC(C)(C)C3)CC1 (stereo not given) | 3.11 | 16.2 | 5.16 | > 100 | 2.79 | 6.16 | 3.1 | 12.2 | 2.16 | 4.54 | 2.06 | > 100 | 3.1 | 10.6 | 13.7 | 35.1 | 10.2 | 25.2 | 1.85 | 3.48 |
| O=C(Oc1cccnc1)c1ccsc1Nc1ccnc(C(F)(F)F)c1 | 4.19 | > 100 | 3.95 | > 100 | 3.49 | > 100 | 3.14 | 46.5 | 2.39 | 6.34 | 3.74 | > 100 | 17.7 | > 100 | 5.21 | > 100 | 4.19 | > 100 | 6.28 | 39.9 |
| Nc1ccc(-c2nc3ccccc3[nH]2)c2ccccc12 | 2.03 | > 43.2 | 3.3 | 12.6 | 6.35 | 20.8 | 1.57 | 9.61 | 1.49 | 14.6 | 2.54 | > 100 | 3.9 | > 100 | 8.26 | > 72.5 | 14.2 | > 100 | 4.27 | > 62.1 |
